Source: EP0449195B1, “Aminobenzene compounds, their production and use” (Takeda Chemical Industries, Ltd., priority 1990, dated 1991)

Test system: N18-RE-105 cells
Assay: Protective activity to glutamic acid-induced necrocytosis in N18-RE-105 cells (cell lethal ratio from LDH activity)
Assay type: cell-based
Details: glutamic acid (10 mM), cultivation 24 hours after addition, LDH activity in cells and medium, read-out: IC₅₀ (minimum concentrations for depressing cell lethal ratio to not more than 50%), Effect on glutamic acid cytotoxicity (cell lethal ratio)
Procedure: When a high concentration of glutamic acid (1 to 10 mM) is added to N18-RE-105 cells, neocrocytosis caused by oxidative stress due to inhibition of incorporation of cystine into cells is observed [Neuron 2, 1547 (1989); J. Pharmacol. Exp. Ther. 250, 1132 (1989)].
Activity of various compounds against this glutamic acid-induced necrocytosis was studied. About 10,000 cells were inoculated into a culture dish of 35 mm in diameter containing DMEM medium (1 ml). After cultivation for 24 hours, glutamic acid and a compound to be tested were added. After the medium was changed to DMEM mediums containing the compound in various concentrations and then glutamic acid (10 mM) was added. After addition of glutamic acid, cultivation was further continued for 24 hours. Then, surviving cells were collected and […] activity contained in the cells and medium was determined. A cell lethal ratio (%) was calculated according to the following formula: Cell lethal ratio (%) =(LDH activity in medium)/(LDH activity in cells + LDH activity in medium)x 100 [formula] Regarding the typical compounds of the present invention, minimum concentrations for depressing cell lethal ratio to not more than 50% (IC₅₀) is shown in Table 9.

| Substance | IC50 [nM] |
| --- | --- |
| 4-(4-octylaminophenyloxy)piperidine [Example 45] | 5.5 |
| 4-[4-(1-phenyldecanylamino)phenyloxy]piperidine [Example 52] | 10 |
